Patent EP4745135A1 (Gluetacs Therapeutics (Shanghai) Co., Ltd., priority 2023, dated 2025)

Tests used:
[1] = tested on: Human myeloid monocytic leukemia cell (MV-4-11); assay: Tumor cell proliferation inhibition (CellTiter-Meiluncell luminescent cell viability assay); details: MV4-11, 96 h; for inhibition at 0.01 µM: read-out: Inhibition Rate at 10 nM (%); for inhibition at 0.5 µM: read-out: Inhibition Rate at 500 nM (%)
[2] = biological target: T1, human Cereblon WT GST-tagged protein (Homo sapiens, UniProt Q96SW2); assay: CRBN-binding affinity, HTRF (CEREBLON BINDING kit); details: for inhibition at 0.5 µM: read-out: Inhibition Rate at 0.5 µM (%); for inhibition at 2 µM: read-out: Inhibition Rate at 2 µM (%); for IC50: CRBN binding, HTRF, 3 hours at room temperature, read-out: HTRF IC50
T1 construct: purchased CISBIO 64BDCRBNPEH
T1 sequence (Q96SW2 whole entry): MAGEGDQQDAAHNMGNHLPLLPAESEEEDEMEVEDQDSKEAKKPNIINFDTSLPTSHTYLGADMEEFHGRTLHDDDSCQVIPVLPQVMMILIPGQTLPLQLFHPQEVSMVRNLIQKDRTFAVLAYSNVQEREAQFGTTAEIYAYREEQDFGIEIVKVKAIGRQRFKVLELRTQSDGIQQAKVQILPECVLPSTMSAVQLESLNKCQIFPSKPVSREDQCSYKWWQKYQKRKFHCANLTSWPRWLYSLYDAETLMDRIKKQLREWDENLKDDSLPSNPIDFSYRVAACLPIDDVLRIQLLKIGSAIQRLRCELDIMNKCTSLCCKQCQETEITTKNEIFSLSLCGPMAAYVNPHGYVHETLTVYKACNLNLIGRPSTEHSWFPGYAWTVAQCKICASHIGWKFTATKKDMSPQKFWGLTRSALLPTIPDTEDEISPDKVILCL

GSPT1 = assay: Western blot, degradation of substrate protein in hPBMCs; assay type: cell-based, Human
WEE1 = biological target: T2, WEE1 (Homo sapiens, UniProt P30291+Q96SW2); assay: as above; assay type: cell-based
T2 construct: effects of the compounds of the present disclosure on the expression of target proteins in cells; endogenous in cells; host or cells: human PBMCs (Milecell Biotechnologies)
T2 sequence (P30291 whole entry): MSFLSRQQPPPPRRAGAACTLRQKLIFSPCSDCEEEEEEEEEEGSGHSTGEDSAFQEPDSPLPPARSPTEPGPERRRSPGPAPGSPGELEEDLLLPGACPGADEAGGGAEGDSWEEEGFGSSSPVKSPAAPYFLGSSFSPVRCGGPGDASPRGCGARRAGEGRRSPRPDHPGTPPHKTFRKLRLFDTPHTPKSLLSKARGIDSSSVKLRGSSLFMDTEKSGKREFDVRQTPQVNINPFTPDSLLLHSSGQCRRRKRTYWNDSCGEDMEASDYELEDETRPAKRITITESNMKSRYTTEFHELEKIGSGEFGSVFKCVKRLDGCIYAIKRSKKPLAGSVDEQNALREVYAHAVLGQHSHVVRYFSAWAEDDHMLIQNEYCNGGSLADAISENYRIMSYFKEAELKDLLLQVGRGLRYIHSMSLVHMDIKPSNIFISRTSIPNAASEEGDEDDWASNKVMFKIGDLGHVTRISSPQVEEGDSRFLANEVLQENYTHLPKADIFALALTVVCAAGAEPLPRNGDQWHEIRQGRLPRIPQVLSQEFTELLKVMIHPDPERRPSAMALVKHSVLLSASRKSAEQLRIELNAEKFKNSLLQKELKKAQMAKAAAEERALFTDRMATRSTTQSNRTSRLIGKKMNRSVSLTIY
T2 sequence (Q96SW2 whole entry): as the sequence (Q96SW2 whole entry) above
T2 sequence (Q16531 whole entry partner): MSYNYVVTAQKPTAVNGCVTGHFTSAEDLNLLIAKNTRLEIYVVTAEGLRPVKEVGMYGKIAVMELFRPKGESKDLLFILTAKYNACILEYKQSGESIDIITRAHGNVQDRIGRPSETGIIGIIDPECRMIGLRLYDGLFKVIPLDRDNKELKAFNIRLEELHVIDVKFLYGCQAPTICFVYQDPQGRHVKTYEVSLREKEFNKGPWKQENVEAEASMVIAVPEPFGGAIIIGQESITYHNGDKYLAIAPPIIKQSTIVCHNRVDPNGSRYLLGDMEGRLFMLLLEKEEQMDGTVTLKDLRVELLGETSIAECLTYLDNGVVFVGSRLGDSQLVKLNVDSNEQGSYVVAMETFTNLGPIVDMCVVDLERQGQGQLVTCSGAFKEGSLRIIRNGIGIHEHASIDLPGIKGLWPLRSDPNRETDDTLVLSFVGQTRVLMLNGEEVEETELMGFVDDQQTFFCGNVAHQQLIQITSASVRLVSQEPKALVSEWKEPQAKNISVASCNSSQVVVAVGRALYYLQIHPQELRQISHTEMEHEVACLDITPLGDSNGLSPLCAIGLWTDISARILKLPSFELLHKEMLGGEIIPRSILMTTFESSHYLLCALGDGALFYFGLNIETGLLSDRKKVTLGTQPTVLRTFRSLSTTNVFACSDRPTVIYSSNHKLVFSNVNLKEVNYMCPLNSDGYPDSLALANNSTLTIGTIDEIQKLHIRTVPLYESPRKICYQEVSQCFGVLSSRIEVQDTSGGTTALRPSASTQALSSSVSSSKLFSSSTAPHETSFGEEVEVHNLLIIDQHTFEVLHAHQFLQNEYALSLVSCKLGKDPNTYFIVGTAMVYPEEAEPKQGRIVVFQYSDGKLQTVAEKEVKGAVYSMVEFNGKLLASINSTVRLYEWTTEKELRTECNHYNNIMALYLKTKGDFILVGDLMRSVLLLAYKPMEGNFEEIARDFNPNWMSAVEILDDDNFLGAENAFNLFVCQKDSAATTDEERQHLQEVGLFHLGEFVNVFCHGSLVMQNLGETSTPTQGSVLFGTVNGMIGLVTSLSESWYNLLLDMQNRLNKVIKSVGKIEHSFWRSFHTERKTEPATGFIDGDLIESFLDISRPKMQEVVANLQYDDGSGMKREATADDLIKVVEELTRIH

IKZF2 = biological target: T3, IKZF2 (Homo sapiens, UniProt Q96SW2+Q9UKS7); assay: as above; assay type: cell-based
T3 construct: effects of the compounds of the present disclosure on the expression of target proteins in cells; endogenous in cells; host or cells: human PBMCs (Milecell Biotechnologies)
T3 sequence (Q9UKS7 whole entry): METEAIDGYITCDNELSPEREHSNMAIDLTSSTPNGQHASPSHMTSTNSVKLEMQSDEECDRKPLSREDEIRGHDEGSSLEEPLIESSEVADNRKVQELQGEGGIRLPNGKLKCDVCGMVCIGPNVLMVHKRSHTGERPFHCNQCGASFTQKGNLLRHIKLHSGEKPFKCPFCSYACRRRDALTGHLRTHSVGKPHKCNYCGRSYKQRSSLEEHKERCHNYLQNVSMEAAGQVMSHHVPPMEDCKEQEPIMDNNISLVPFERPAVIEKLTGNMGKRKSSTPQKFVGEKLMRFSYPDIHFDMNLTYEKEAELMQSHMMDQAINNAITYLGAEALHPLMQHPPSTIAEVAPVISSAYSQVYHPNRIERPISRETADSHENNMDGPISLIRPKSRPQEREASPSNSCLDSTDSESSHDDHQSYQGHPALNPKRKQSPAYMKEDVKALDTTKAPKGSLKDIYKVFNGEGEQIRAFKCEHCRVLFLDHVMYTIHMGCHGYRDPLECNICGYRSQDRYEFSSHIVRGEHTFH
T3 sequence (Q96SW2 whole entry): as the sequence (Q96SW2 whole entry) above
T3 sequence (Q16531 whole entry partner): as the sequence (Q16531 whole entry partner) above

CK1α = biological target: T4, CK1α (Homo sapiens, UniProt P48729+Q96SW2); assay: as above; assay type: cell-based
T4 construct: effects of the compounds of the present disclosure on the expression of target proteins in cells; endogenous in cells; host or cells: human PBMCs (Milecell Biotechnologies)
T4 sequence (P48729 whole entry): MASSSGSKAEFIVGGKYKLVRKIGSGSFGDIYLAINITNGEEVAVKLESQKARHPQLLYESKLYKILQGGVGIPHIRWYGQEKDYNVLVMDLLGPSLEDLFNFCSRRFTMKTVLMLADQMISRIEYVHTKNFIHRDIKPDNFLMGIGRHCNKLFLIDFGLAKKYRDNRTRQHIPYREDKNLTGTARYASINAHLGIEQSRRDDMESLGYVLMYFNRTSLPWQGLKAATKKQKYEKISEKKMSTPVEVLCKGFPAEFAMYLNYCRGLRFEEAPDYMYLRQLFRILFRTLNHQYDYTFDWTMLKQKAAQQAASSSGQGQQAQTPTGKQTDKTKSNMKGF
T4 sequence (Q96SW2 whole entry): as the sequence (Q96SW2 whole entry) above
T4 sequence (Q16531 whole entry partner): as the sequence (Q16531 whole entry partner) above

IKZF3 = biological target: T5, IKZF3 (Homo sapiens, UniProt Q96SW2+Q9UKT9); assay: as above; assay type: cell-based
T5 construct: effects of the compounds of the present disclosure on the expression of target proteins in cells; endogenous in cells; host or cells: human PBMCs (Milecell Biotechnologies)
T5 sequence (Q9UKT9 whole entry): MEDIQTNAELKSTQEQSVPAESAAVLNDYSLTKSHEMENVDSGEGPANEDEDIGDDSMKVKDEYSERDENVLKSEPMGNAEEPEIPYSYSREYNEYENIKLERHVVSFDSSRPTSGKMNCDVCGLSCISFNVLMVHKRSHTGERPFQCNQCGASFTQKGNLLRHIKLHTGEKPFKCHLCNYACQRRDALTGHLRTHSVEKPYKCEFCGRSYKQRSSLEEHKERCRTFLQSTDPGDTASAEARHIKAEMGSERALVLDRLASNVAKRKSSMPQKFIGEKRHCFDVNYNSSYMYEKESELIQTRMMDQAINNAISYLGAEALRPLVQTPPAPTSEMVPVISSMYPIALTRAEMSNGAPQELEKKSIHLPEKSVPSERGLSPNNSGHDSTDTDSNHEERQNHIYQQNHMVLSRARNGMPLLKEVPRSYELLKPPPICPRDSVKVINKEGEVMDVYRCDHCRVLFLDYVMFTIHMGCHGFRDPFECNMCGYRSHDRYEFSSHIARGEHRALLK
T5 sequence (Q96SW2 whole entry): as the sequence (Q96SW2 whole entry) above
T5 sequence (Q16531 whole entry partner): as the sequence (Q16531 whole entry partner) above

IKZF1 = biological target: T6, IKZF1 (Homo sapiens, UniProt Q13422+Q96SW2); assay: as above; assay type: cell-based
T6 construct: effects of the compounds of the present disclosure on the expression of target proteins in cells; endogenous in cells; host or cells: human PBMCs (Milecell Biotechnologies)
T6 sequence (Q13422 whole entry): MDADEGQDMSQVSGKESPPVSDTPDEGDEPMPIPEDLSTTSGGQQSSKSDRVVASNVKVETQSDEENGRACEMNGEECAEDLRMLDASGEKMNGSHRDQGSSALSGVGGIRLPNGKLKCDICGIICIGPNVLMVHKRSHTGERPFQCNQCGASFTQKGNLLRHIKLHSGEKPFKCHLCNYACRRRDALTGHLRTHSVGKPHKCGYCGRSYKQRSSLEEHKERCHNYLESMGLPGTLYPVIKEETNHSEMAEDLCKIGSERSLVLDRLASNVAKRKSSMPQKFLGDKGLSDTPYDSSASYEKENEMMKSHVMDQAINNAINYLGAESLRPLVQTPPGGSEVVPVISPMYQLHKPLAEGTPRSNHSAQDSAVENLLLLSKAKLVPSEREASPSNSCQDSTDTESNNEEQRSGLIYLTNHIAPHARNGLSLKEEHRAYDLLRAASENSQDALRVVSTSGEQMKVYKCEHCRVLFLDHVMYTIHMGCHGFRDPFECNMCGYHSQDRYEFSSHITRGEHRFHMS
T6 sequence (Q96SW2 whole entry): as the sequence (Q96SW2 whole entry) above
T6 sequence (Q16531 whole entry partner): as the sequence (Q16531 whole entry partner) above

[3] = tested on: Human multiple myeloma cell (MM.1S); assay: Tumor cell proliferation inhibition (CellTiter-Meiluncell luminescent cell viability assay); details: for IC50 / inhibition at 0.01 µM / inhibition at 0.5 µM: Homo sapiens, MM1.S, 96 h; for IC50: read-out: Inhibitory activity (IC50, nM) on tumor cell proliferation, MM.1S; for inhibition at 0.01 µM: read-out: Inhibition Rate at 10 nM (%); for Inhibition Rate at 500 nM (%): MM.1S, 96 hours; for inhibition at 0.5 µM: read-out: Inhibition Rate at 500 nM (%)
[4] = Western blot, 24 hours of compound treatment, compounds tested at 50 nM and 500 nM (concentration for the table not stated)
[5] = 24 hours treatment, compounds at 50 nM and 500 nM (concentration behind the class not stated)

| SMILES | inhibition at 0.5 µM [2] | inhibition at 2 µM [2] | IC50 [2] | GSPT1 substrate protein remaining % (GSPT1; [4]) | Wee1 substrate protein remaining % (WEE1; [4]) | IKZF2 substrate protein remaining % (IKZF2; [4]) | CK1α substrate protein remaining % (CK1α; [4]) | IKZF3 substrate protein remaining % (IKZF3; [4]) | IKZF 1 substrate protein remaining % (IKZF1; [4]) | IC50 [3] | inhibition at 0.01 µM [3] | Inhibition Rate at 500 nM (%) [3] | other results |
| --- | --- | --- | --- | --- | --- | --- | --- | --- | --- | --- | --- | --- | --- |
| O=C1CCC(N2Cc3cc(CN4CCN(c5cccnc5)CC4)ccc3C2=S)C(=O)N1 (stereo not drawn) [GT-09229, 3-(5-((4-(pyridin-3-yl)piperazin-1-yl)methyl)-1-thioxoisoindolin-2-yl)piperidine-2,6-dione] | 60 to 80% | 80 to 100% | – | – | – | – | – | – | – | – | – | – | inhibition at 0.01 µM [1]: 40 to 60%; inhibition at 0.5 µM [1]: 40 to 60% |
| Cc1csc2ncnc(N3CCN(Cc4ccc5c(c4)CN(C4CCC(=O)NC4=O)C5=S)CC3)c12 (stereo not drawn) [GT-09281, 3-(5-((4-(5-methylthieno[2,3-d]pyrimidin-4-yl)piperazin-1-yl)methyl)-1-thioxoisoindolin-2-yl)piperidine-2,6-dione] | 80 to 100% | 80 to 100% | – | – | – | – | – | – | – | – | – | – | inhibition at 0.01 µM [1]: 25 to 30%; inhibition at 0.5 µM [1]: 40 to 60% |
| O=C1CCC(N2Cc3cc(CN4CCN(C(c5ccccc5)c5ccccn5)CC4)ccc3C2=S)C(=O)N1 (stereo not drawn) [GT-05103, 3-(5-((4-(phenyl(pyridin-2-yl)methyl)piperazin-1-yl)methyl)-1-thioxoisoindolin-2-yl)piperidine-2,6-dione] | – | – | 100 to 500 nM | A (0% ≤ substrate protein remaining % ≤ 80%) | B (80%< substrate protein remaining %≤ 100%) | B (80%< substrate protein remaining %≤ 100%) | B (80%< substrate protein remaining %≤ 100%) | B (80%< substrate protein remaining %≤ 100%) | B (80%< substrate protein remaining %≤ 100%) | 10 to 50 nM | – | – | – |
| O=C1CCC(N2Cc3c(CN4CC5CC(C4)N5c4cccc(Cl)c4Cl)cccc3C2=S)C(=O)N1 (stereo not drawn) [GT-08466, 3-(4-((6-(2,3-dichlorophenyl)-3,6-diazabicyclo[3.1.1]heptan-3-yl)methyl)-1-thioxoisoindolin-2-yl)piperidine-2,6-dione] | 30 to 40% | 60 to 80% | – | A (0% ≤ substrate protein remaining % ≤ 80%) | B (80%< substrate protein remaining %≤ 100%) | A (0% ≤ substrate protein remaining % ≤ 80%) | B (80%< substrate protein remaining %≤ 100%) | B (80%< substrate protein remaining %≤ 100%) | B (80%< substrate protein remaining %≤ 100%) | – | 20 to 30% | la7 | – |
| Cc1cc2c(C3=CCN(Cc4cccc5c4CN(C4CCC(=O)NC4=O)C5=S)CC3)ncnc2s1 (stereo not drawn) [GT-08947, 3-(4-((4-(6-methylthieno[2,3-d]pyrimidin-4-yl)-3,6-dihydropyridin-1(2H)-yl)methyl)-1-thioxoisoindolin-2-yl)piperidine-2,6-dione] | 60 to 80% | 80 to 100% | – | – | – | – | – | – | – | – | 30 to 40% | – | GSPT1 substrate protein remaining % (GSPT1; [5]): B (80%< substrate protein remaining %≤ 100%); Wee1 substrate protein remaining % (WEE1; [5]): A (0% ≤ substrate protein remaining % ≤ 80%); IKZF2 substrate protein remaining % (IKZF2; [5]): B (80%< substrate protein remaining %≤ 100%); CK1α substrate protein remaining % (CK1α; [5]): B (80%< substrate protein remaining %≤ 100%); IKZF3 substrate protein remaining % (IKZF3; [5]): B (80%< substrate protein remaining %≤ 100%); IKZF 1 substrate protein remaining % (IKZF1; [5]): B (80%< substrate protein remaining %≤ 100%); inhibition at 0.5 µM [3]: 40 to 50% |
| O=C1CC[C@H](N2Cc3c(OCc4ccc(CN5CCOCC5)cc4)cccc3C2=S)C(=O)N1 [GT-05712, (S)-3-(4-((4-(morpholinomethyl)benzyl)oxy)-1-thioxoisoindolin-2-yl)piperidine-2,6-dione] | – | – | < 100 nM | – | – | – | – | – | – | – | 50 to 60% | – | GSPT1 substrate protein remaining % (GSPT1; [5]): A (0% ≤ substrate protein remaining % ≤ 80%); Wee1 substrate protein remaining % (WEE1; [5]): B (80%< substrate protein remaining %≤ 100%); IKZF2 substrate protein remaining % (IKZF2; [5]): B (80%< substrate protein remaining %≤ 100%); CK1α substrate protein remaining % (CK1α; [5]): B (80%< substrate protein remaining %≤ 100%); IKZF3 substrate protein remaining % (IKZF3; [5]): A (0% ≤ substrate protein remaining % ≤ 80%); IKZF 1 substrate protein remaining % (IKZF1; [5]): A (0% ≤ substrate protein remaining % ≤ 80%); inhibition at 0.5 µM [3]: 70 to 80% |
| O=C1CCC(N2Cc3cc(CN4C[C@@H]5C[C@H]4CN5c4cccc(Cl)c4Cl)ccc3C2=S)C(=O)N1 (stereo partly drawn) [GT-05183, 3-(5-(((1S,4S)-5-(2,3-dichlorophenyl)-2,5-diazabicyclo[2.2.1]heptan-2-yl)methyl)-1-thioxoisoindolin-2-yl)piperidine-2,6-dione] | – | – | 100 to 500 nM | A (0% ≤ substrate protein remaining % ≤ 80%) | B (80%< substrate protein remaining %≤ 100%) | B (80%< substrate protein remaining %≤ 100%) | B (80%< substrate protein remaining %≤ 100%) | A (0% ≤ substrate protein remaining % ≤ 80%) | B (80%< substrate protein remaining %≤ 100%) | 50 to 100 nM | – | – | – |
| O=C1CCC(N2Cc3cc(CN4C5CC4CN(c4cccc(Cl)c4Cl)C5)ccc3C2=S)C(=O)N1 (stereo not drawn) [GT-05182, 3-(5-((3-(2,3-dichlorophenyl)-3,6-diazabicyclo[3.1.1]heptan-6-yl)methyl)-1-thioxoisoindolin-2-yl)piperidine-2,6-dione] | – | – | 100 to 500 nM | A (0% ≤ substrate protein remaining % ≤ 80%) | A (0% ≤ substrate protein remaining % ≤ 80%) | B (80%< substrate protein remaining %≤ 100%) | B (80%< substrate protein remaining %≤ 100%) | B (80%< substrate protein remaining %≤ 100%) | B (80%< substrate protein remaining %≤ 100%) | 100 to 500 nM | – | – | – |
| O=C1CCC(N2Cc3c(CN4C5CC4CN(c4cccc(Cl)c4Cl)C5)cccc3C2=S)C(=O)N1 (stereo not drawn) [GT-08465, 3-(4-((3-(2,3-dichlorophenyl)-3,6-diazabicyclo[3.1.1]heptan-6-yl)methyl)-1-thioxoisoindolin-2-yl)piperidine-2,6-dione] | 40 to 53% | 60 to 80% | – | A (0% ≤ substrate protein remaining % ≤ 80%) | B (80%< substrate protein remaining %≤ 100%) | B (80%< substrate protein remaining %≤ 100%) | B (80%< substrate protein remaining %≤ 100%) | B (80%< substrate protein remaining %≤ 100%) | B (80%< substrate protein remaining %≤ 100%) | – | 40 to 50% | la5 | – |
| O=C1CCC(N2Cc3cc(CN4CCN(c5ccccc5Br)CC4)ccc3C2=S)C(=O)N1 (stereo not drawn) [GT-08242, 3-(5-((4-(2-bromophenyl)piperazin-1-yl)methyl)-1-thioxoisoindolin-2-yl)piperidine-2,6-dione] | 40 to 53% | 80 to 100% | – | A (0% ≤ substrate protein remaining % ≤ 80%) | B (80%< substrate protein remaining %≤ 100%) | B (80%< substrate protein remaining %≤ 100%) | B (80%< substrate protein remaining %≤ 100%) | B (80%< substrate protein remaining %≤ 100%) | B (80%< substrate protein remaining %≤ 100%) | – | 30 to 40% | la8 | – |
